Laboratory results as given in patent publication US10736922B2, “High telomerase activity bone marrow mesenchymal stem cells, methods of producing the same and pharmaceuticals and treatment methods based thereon” (UNIVERSITY OF SOUTHERN CALIFORNIA, priority 2010, dated 2020).
Each block holds one compound with its values, some of them ahead of it.

Legend:
telomerase [1] = assay: Telomerase activity, TeloTAGGG Telomerase PCR ELISA kit, mouse BMMSC cultures; assay type: cell-based
Experimental: (§1) Inhibitor treatment. tBMMSCs and BMMSCs were treated with 1 mM L-NMMA (Cayman Chemical) or 0.2 mM 1400 W (Cayman Chemical) to inhibit total NOS or iNOS, respectively. Aspirin 50 μg/ml (TAT) and telomerase inhibitor III (1 μM; EMD Chemicals) were used to activate and suppress telomerase activity in cultured BMMSCs, respectively. CHIRON 99021 (1 or 10 μM; Chiron Corporation) and Dickkopf 1 (DKK1, 10 ng/ml, R&D Systems) were used as an activator and inhibitor to regulate β catenin levels in BMMSCs.
Measurement of telomerase activity. The Telomerase activity was measured using TeloTAGGG Telomerase PCR ELISA kit (Roche).

NO production in BMMSCs = assay: Measurement of nitric oxide production in BMMSC culture supernatant; assay type: cell-based, mouse
Experimental: as §1
Measurement of nitric oxide production. BMMSCs (0.2×10^6/well) were cultured on 24-well plates with or without cytokines (IFNγ, 25 ng/ml; IL-1β, 5 ng/ml, R&D Systems) and chemicals (L-NMMA, 1 mM; 1400W, 0.2 mM; aspirin, 50 μg/ml; Telomerase inhibitor III, 1 μM; CHIRON 99021, 1 or 10 μM; DKK1, 10 ng/ml) at indicated concentration and days. The same chemical concentration was also used in combination treatment such as DKK and aspirin or Telomerase inhibitor and CHIRON99021. The supernatant from each culture was collected and measured nitric oxide concentration using Total Nitric Oxide and Nitrate/Nitrite Parameter Assay kit (R&D Systems) according to manufacturer's instruction.

active β-catenin = assay: Western blot of active beta-catenin in BMMSCs; assay type: cell-based, mouse
Experimental: (§2) Western blotting analysis. […] of protein were used and SDS-PAGE and western blotting were performed according to standard procedures. β-actin on the same membrane served as the loading control.
as §1

telomerase [2] = assay: Telomerase activity in human BMMSCs, Telo TAGGG Telomerase PCR ELISA kit; assay type: cell-based; conditions: aspirin in culture medium at 2.5 μg/ml or 50 μg/ml for 1 week
[3] = system: telomerase reverse transcriptase (TERT); assay: Western blot of TERT expression; assay type: cell-based, mouse; conditions: aspirin treatment, one week
Experimental: as §2

[4] = system: CD73, Sca-1, Oct4, SSEA4, CD34, CD45; assay: Flow cytometric analysis of mesenchymal stem cell surface molecules; assay type: cell-based, mouse; conditions: aspirin treatment
Experimental: Flow cytometric analysis of mesenchymal stem cell surface molecules. BMMSCs or pBMMSCs (0.2×10^6) were incubated with 1 µg of PE conjugated antibodies or isotype-matched control IgGs (Southern Biotech) at 4° C. for 45 min. Samples were analyzed by FACS^Calibur flow cytometer (BD Bioscience). For dual color analysis, the cells were treated with PE conjugated and FITC conjugated antibodies or isotype-matched control IgGs (each 1 […]g). The cells were analyzed on FACS^Calibur (BD Bioscience).

activated SP cells [5] = assay: Cell survival assay, Transwell co-culture with activated splenocytes (cell counting kit-8); assay type: cell-based, mouse; conditions: for tBMMSC / BMMSC effect on cell viability of activated SP cells: L-NMMA 1 mM or 1400W 0.2 mM in co-culture
Experimental: (§3) Cell apoptosis and cell survival assay. Transwell system (Corning) was used for co-culture experiments. 0.2×10^6 of tBMMSCs or BMMSCs were seeded on each lower chamber. In the upper chambers, activated splenocytes (1×10^6/chamber), which were pre-stimulated with plate-bounded anti CD3ε antibody (5 μg/ml) and soluble anti CD28 antibody (2 μg/ml) for 3 days, were loaded. Both chambers were filled with a complete medium containing Dulbecco's Modified Eagle Medium (DMEM, Lonza) with 10% heat-inactivated FBS, 50 μM 2-mercaptoethanol, 10 mM HEPES, 1 mM sodium pyruvate (Sigma), 1% non-essential amino acid (Cambrex), 2 mM L-glutamine, 100 U/ml penicillin and […] streptomycin. To measure the splenocyte viability, cell counting kit-8 (Dojindo Molecular Technoloies) were used. For apoptosis of splenocyte analysis, Annexin V-PE apoptosis detection kit I (BD Bioscience) were used and analyzed on FACS^Calibur (BD Bioscience).

activated SP cells [6] = assay: Cell apoptosis assay, Transwell co-culture with activated splenocytes (Annexin V/7AAD); assay type: cell-based, mouse; conditions: for number of early and late apoptotic SP cells in tBMMSC and regular BMMSC groups: L-NMMA 1 mM or 1400W 0.2 mM in co-culture
Experimental: as §3

iNOS = biological target: T1, iNOS (Mus musculus, UniProt P29477); assay: Western blot of iNOS expression; assay type: cell-based; conditions: BMMSCs and tBMMSCs, L-NMMA 1 mM or 1400W 0.2 mM, 3 days
T1 construct: endogenous in cells; host or cells: primary BMMSCs and tBMMSCs
T1 sequence (P29477 1-1144): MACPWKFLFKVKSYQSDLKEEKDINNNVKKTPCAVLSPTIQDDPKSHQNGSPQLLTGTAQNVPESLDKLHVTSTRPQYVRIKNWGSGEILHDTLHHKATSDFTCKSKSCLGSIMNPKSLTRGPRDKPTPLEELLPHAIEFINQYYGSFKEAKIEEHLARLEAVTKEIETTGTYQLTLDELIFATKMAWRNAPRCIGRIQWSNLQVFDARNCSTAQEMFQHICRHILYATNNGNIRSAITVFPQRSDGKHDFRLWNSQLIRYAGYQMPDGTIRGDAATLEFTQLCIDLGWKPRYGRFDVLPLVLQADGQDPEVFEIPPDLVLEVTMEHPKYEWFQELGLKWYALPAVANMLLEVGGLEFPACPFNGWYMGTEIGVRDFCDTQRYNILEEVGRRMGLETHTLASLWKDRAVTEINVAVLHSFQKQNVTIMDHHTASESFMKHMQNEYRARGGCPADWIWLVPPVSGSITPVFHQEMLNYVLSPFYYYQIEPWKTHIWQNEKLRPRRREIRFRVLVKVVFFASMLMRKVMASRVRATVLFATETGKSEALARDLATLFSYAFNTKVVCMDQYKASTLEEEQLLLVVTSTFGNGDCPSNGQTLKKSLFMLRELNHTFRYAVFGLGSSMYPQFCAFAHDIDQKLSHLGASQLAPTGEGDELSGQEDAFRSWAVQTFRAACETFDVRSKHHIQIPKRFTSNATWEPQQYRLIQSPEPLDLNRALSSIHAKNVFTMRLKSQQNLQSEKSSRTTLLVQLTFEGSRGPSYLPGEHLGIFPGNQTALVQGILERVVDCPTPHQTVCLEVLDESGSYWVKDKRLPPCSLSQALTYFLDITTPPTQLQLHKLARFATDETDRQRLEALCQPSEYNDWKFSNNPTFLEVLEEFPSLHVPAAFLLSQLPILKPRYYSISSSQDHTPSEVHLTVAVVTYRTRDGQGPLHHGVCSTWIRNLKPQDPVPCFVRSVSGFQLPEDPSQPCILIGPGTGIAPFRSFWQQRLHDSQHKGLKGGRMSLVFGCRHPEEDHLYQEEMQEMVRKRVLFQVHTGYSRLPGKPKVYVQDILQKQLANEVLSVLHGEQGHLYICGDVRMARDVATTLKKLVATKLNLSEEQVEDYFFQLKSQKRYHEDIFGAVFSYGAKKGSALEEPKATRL
Experimental: as §2, §1

CD4^+CD25^+Foxp3^+ Tregs = assay: In vitro CD4+CD25+Foxp3+ Tregs induction; assay type: cell-based, mouse; conditions: L-NMMA 1 mM or 1400W 0.2 mM
Experimental: In vitro CD4^+CD25^+Foxp3^+Tregs induction. CD4^+CD25^− T-lymphocytes (1×10^6/well), collected by CD4^+CD25^+ regulatory T-cell Isolation kit (Miltenyi Biotec), were pre-stimulated with plate bounded anti CD3E antibody (5 μg/ml) and soluble anti CD28 antibody (2 μg/ml) for 3 days. These activated T-lymphocytes were loaded on 0.2×10^6 of BMMSC or tBMMSC cultures with recombinant human TFGβ1 (2 μg/ml) (R&D Systems) and recombinant mouse IL2 (2 μg/ml) (R&D Systems). After 3 days, cells in suspension were collected and stained with anti CD4-PerCP, anti CD8a-FITC, anti CD25-APC antibodies (each 1 μg) for 45 min on ice under dark condition. And then cells were stained with anti Foxp3-PE antibody (1 μg) using Foxp3 staining buffer kit (eBioscience) for cell fixation and permeabilization. The cells were analyzed on FACS^Calibur (BD Bioscience).

[7] = BMMSCs treated with aspirin (TAT) prior to co-culture
[8] = L-NMMA 1 mM or 1400W 0.2 mM, 3 days

Telomerase activity in BMMSCs (telomerase [1]; Chiron treatment, 7 days): elevated telomerase activity
Compound: Cc1cnc(-c2cnc(NCCNc3ccc(C#N)cn3)nc2-c2ccc(Cl)cc2Cl)[nH]1 [Chiron 99021]
NO production in BMMSCs (NO production in BMMSCs; Chiron 1 and 10 μM, 1 week): up-regulated NO production in BMMSCs in a dose-dependent manner | active beta-catenin in BMMSCs (active β-catenin; Chiron 99021, 7 days): elevation of active beta-catenin in a dose-dependent manner

Compound: DKK1: Wnt inhibitor, Dickkopf 1 (R&D Systems)
aspirin (TAT)-induced telomerase activity in BMMSCs (telomerase [1]; DKK1 10 ng/ml, DKK-TAT): capable of blocking | aspirin-induced NO production in BMMSCs (NO production in BMMSCs; DKK1 10 ng/ml added prior to aspirin (TAT) treatment, three days): significantly block | activated β-catenin level in BMMSCs (active β-catenin; DKK1 10 ng/ml): reducing activated β-catenin level

Telomerase activity in BMMSCs (telomerase [1]; regular BMMSCs cultured with aspirin (50 μg/ml) for one week): significantly elevated
Compound: CC(=O)Oc1ccccc1C(=O)O [aspirin]
Telomerase activity in human BMMSCs (telomerase [2]): significantly increased level of telomerase activity | NO production in BMMSCs (NO production in BMMSCs; regular BMMSCs cultured with aspirin for one week): significantly elevated | telomerase reverse transcriptase (TERT) expression in BMMSCs [3]: significantly elevated | DKK1-induced down-regulation of activated beta-catenin (active β-catenin; aspirin (TAT) treatment): partially block | CD34 expression in BMMSCs [4]: elevates CD34 expression | BMMSC-induced reduction of activated SP cell viability (activated SP cells [5]; [7]): promote BMMSC-induced reduction of activated SP cell viability | BMMSC-induced early and late apoptosis of activated SP cells (activated SP cells [6]; [7]): elevation of early and late apoptosis

iNOS expression (iNOS): inhibited
Compound: CC(=N)NCc1cccc(CN)c1 [1400W]
NO production in BMMSCs (NO production in BMMSCs; [8]): inhibit NO production | tBMMSC / BMMSC effect on cell viability of activated SP cells (activated SP cells [5]): significantly block tBMMSC, but not regular BMMSC, induced cell viability | inhibition of early apoptotic SP cells, tBMMSC group compared to regular BMMSC group (activated SP cells [6]; 1400W 0.2 mM): significantly greater inhibition | number of early and late apoptotic SP cells in tBMMSC and regular BMMSC groups (activated SP cells [6]): significantly reduced | BMMSC- and tBMMSC-induced up-regulation of Tregs (CD4^+CD25^+Foxp3^+ Tregs): inhibit

Compound: CNC(=N)NCCC[C@H](N)C(=O)O [L-NMMA, NG-monomethyl-L-arginine]
NO production in BMMSCs (NO production in BMMSCs; [8]): inhibit NO production | iNOS expression (iNOS): inhibited | tBMMSC / BMMSC effect on cell viability of activated SP cells (activated SP cells [5]): significantly block tBMMSC, but not regular BMMSC, induced cell viability | number of early and late apoptotic SP cells in tBMMSC and regular BMMSC groups (activated SP cells [6]): significantly reduced | BMMSC- and tBMMSC-induced up-regulation of Tregs (CD4^+CD25^+Foxp3^+ Tregs): inhibit
